This is an account of results in patent US9974301B2, “Fungicidal composition for controlling phytopathogenic diseases, comprising a mixture of the volatile compounds ethanol, 3-methylbutanol, isobutyl acetate, isoamyl acetate and alpha-bisabolol; and the use thereof for inhibiting the growth of the pathogenic fungus botrytis cinerea” (UNIVERSIDAD DE LA FRONTERA, priority 2013, dated 2018).

For the experiment, the system named is Botrytis cinerea. As to the kind of experiment: Inhibition of growth of Botrytis cinerea by artificial VOC mixture and pure compounds, bi compartmentalized Petri dishes (vapour exposure). Type of experiment: cell-based. To be noted: pure compounds at their relative proportion of 0.70 μl/mL mixture (ethanol 0.11, isobutyl acetate 0.14, isoamyl acetate 0.13, α-bisabolol 0.10 μl/mL head space); after four days. As for the experimental part:
For this, bi compartmentalized Petri dishes (94×16 mm) (Greiner, Germany) coated with culture medium were used, leaving a head space of 60 mL. One compartment was inoculated with mycelium (3 mm radius disk) of the saprophytic fungus (S. commune). The other compartment was inoculated with fresh mycelium of B. cinerea. In this bioassay there was no physical contact between the two fungi. The control treatment consisted of placing the mycelium of B. cinerea in only one of the compartments. All experimental units (Petri dishes) were covered and sealed with Parafilm M®, and incubated at 25° C. in the dark until the growth of any fungi (treatment and control) reached the edge of the central wall of the Petri dish. The mycelial growth was measured using a magnifying glass (Japan Optical), and data were expressed as percent of inhibition relative to control. Each treatment was repeated 10 times.
The inhibitory power of pure compounds and of a mixture based on their percent ratio were assessed. The methodology was similar to that detailed above to assess the antifungal activity of saprophytic fungus. The minimum inhibitory concentration (MIC) and lethal dose 50% (LD50) were calculated by interpolation according to the polynomial equation (Y=−194.565812×2+318.001954×−25.561441; r2=0.982) (See FIG. 2).
6 formulations were tested at laboratory level: […]
Formulation 2: 0.11 μl ethanol per 1 mL of head space volume (airspace).
Formulation 3: 0.14 μl of isobutyl acetate per 1 mL of head space volume (airspace).
Formulation 4: 0.13 μl of isoamyl acetate per 1 mL of head space volume (airspace).
Formulation 5: 0.10 μl of α-bisabolol per 1 mL of head space volume (airspace).
The effect of each formulation for inhibiting the growth of B. cinerea was tested using bi compartmentalized dishes, according to the above methodology.
Consider α-bisabolol, for which the “percent of inhibition of Botrytis cinerea growth” value is given as “did not inhibit”. To `CC(=O)OCCC(C)C` [isoamyl acetate] belongs 77%; to `CC(=O)OCC(C)C` [isobutyl acetate], 47%.
